Measurements published in patent US7230025B2, “Pyrazole derivatives” (Pfizer, Inc., priority 2002, dated 2007).
Where two headings read alike, the source gives them in different places.

Biological target: T1, HIV-1 reverse transcriptase (Human immunodeficiency virus type 1 group M subtype B, UniProt P04585)
T1 construct: purified recombinant HIV-1 reverse transcriptase (RT, EC, 2.7.7.49) obtained by expression in Escherichia Coli; made in house; host or cells: Escherichia coli
Assay: Inhibition of HIV-1 Reverse Transcriptase Enzyme
Assay type: biochemical
Excerpt: The activity of the compounds of the invention as reverse transcriptase inhibitors may be measured using the following assay.
Inhibition of HIV-1 Reverse Transcriptase Enzyme
Using purified recombinant HIV-1 reverse transcriptase (RT, EC, 2.7.7.49) obtained by expression in Escherichia Coli, a 96-well plate assay system is established for assaying a large number of samples using either the Poly(rA)-oligo(dT) Reverse Transcriptase [3H]-SPA enzyme assay system (Amersham NK9020) or the [3H]-flashplate enzyme assay system (NEN-SMP 103) and following the manufacturer's recommendations. The compounds are dissolved in 100% DMSO and diluted with the appropriate buffer to a 5% final DMSO concentration. The inhibitory activity is expressed in percent inhibition relative to DMSO control.

Row | Structure (SMILES) | IC50 | IC50 (purified recombinant HIV-1 RT expressed in Escherichia Coli, [3H]-SPA or [3H]-flashplate enzyme assay, 5% final DMSO, read-out: IC50)
1 | CCc1nn(C)c(Oc2ncc(Oc3ccc(OC)cc3)cn2)c1Oc1cc(C#N)cc(C#N)c1 [Example 6] | 391 nM | –
2 | CCc1nn(C)c(Oc2ccccn2)c1Oc1cc(C#N)cc(C#N)c1 [Example 1, 5-[3-Ethyl-1-methyl-5-(pyridin-2-yloxy)-1H-pyrazol4-yloxy]-isophthalonitrile] | – | 5400 nM
